Experimental data from patent US20260216141A1, “NECROSIS INHIBITOR” (LINKGEVITY LIMITED, priority 2023, published 2026).
Entries after “also recorded” stand apart in the source; their conditions may differ.

How the values were obtained:
Hepg2s spheroids [1] = format: cell-based
Protocol: Media changes were on alternative days. […] DMSO controls were added on each plate.
In some of the following Examples, human 3D cell culture was employed using liver Hepg2 cells. 3D cell culture is known to accurately replicate a cell's native environment. During embryonic development, cells aggregate and self-assemble into complex multi-cellular structures. The same aggregation process can likewise occur in in vitro culture systems if cell-cell cohesion is favoured over cell attachment to a substrate. The resulting 3D cell culture aggregates are known as spheroids. […] A standard method of spheroid formation in U-bottom low adhesion plates was used in the Examples herein.
This is because, as the spheroids grow, only the peripheral cells obtain oxygen and nutrients from the cell culture medium. The inner cells die from cell death necrosis, with the formation of large necrotic cores (observable though use of standard live dead stains). Thus, necrotic core formation represents a naturally occurring hypoxic and nutrient stress. This resembles multiple forms of shock in humans where blood flow carrying nutrients and oxygen is disrupted to certain cells, tissues and/or organs.

E. coli = E. coli oxidative stress, colony forming units; format: cell-based; settings: EGTA 2500 μM during stress; 50 min 1 mM H2O2
Protocol: 2 loops of E. coli stationary-phase bacterial cells collected post seeding (80 μL from a culture grown for 12 hrs) on agar plates containing bactopeptone and allowing to grow for 24 hrs was collected in buffer. Bacterial cells were then stressed for 50 min using 1 mM hydrogen peroxide. Treatment is EGTA 2500 μM during stress. Cells were then washed in buffer. Following stress, bacteria was washed in buffer and then diluted 1:500 in MilliQ water and seeded onto agar plates containing bactopeptone and left at 37° C. overnight. This was followed by counting colony forming units (CFU) counted. Three repeats were performed.
Bacteria, E. coli, and yeast, S. pombi, were exposed to toxin hydrogen peroxide stress (stress is for 50 min 1 mM H2O2) with or without high doses (2500 μM; c.f. FIG. 2) of the chelating agent EGTA (inhibitor of the predicted weak spot of loss of calcium ion homeostasis in the cytosol) delivered during the stress.
Following stress, bacteria cells were then placed on agar plates and allowed to grow at 37° C. overnight and colony forming units (CFU) were then counted.

C. elegans = C. elegans movement analysis post stress; format: in vivo, Caenorhabditis elegans; settings: EGTA 2500 μM in liposomes 3 hrs prior stress; cold, heat, oxidative and toxin stress
Description: Movement was scored according to an adapted methodology (from Herndon et al., 2002). Briefly, animals were marked as either: normal movement; or defective movement. Defective movement was defined as worms that are stationary unless touched with a pick, in which case they may only move a few […] forward before stopping again or they may not move at all. 100 animals were used per trial and the percentage of worms with defective movement was scored.
According to the protocol in Shibamura et al., 2009, drug was dissolved in MilliQ water and encapsulated in liposomes. Drug used was EGTA, at a final concentration of 2500 μM. Briefly, L-a-phosphatidylcholine (LαPC) was used to prepare liposomes by first dissolving LαPC in distilled water at the concentration of 96 mg/ml. A ×2 concentration of drug solution was mixed with LαPC to a 1:1 ratio and heated to 65° C. Drug-LαPC solution was then converted into liposomes using a mini-Avanti extruder a 100 nm pore size polycarbonate membrane. MilliQ water encapsulated in liposomes was used a as the empty vector control. Following preparation, 25 μl of the liposome drug solution was spread onto a 25 μl spot OP50 lawn on NGM plates and worms were then picked onto the plates.
The percentage of animals with this defective movement were scored post stress.

[2] = tested on: mouse organs (heart, brain, spleen organotypic slices); experiment: Mouse organotypic slices hypoxia stress, PI/DAPI staining; format: cell-based; settings: 2500 μM EGTA during stress, hypoxia 2.5 hrs in N2 gas bubbled buffer
Description: For organotypic cultures, sagittal hippocampal brainslices were taken from wild type mice. Following decapitation, all organs were quickly removed, placed in ice-cold buffer (artificial cerebrospinal fluid (ACSF) [in mmol/L]: NaCl 125, KCl 2.4, NaHCO326, NaH2PO4 1.25, glucose 25, CaCl2 2 [0.5 mmol/L for dissection], MgCl2 1 [5 mmol/L for dissection]; bubbled with carbogen) for brain, and for all other organs Ringers buffer. For brain, to reduce the rate of cell death most dissections were carried out with high-magnesium (5 mmol/L)/low-calcium (0.5 mmol/L) ACSF. The brain was hemisected and a section was cut away by hand that was approximately 100° from the midline surface. The hemispheres were then mounted with superglue on to a slicing stage and 300 μm hippocampal slices were cut with a vibroslicer and transferred to an incubating chamber with circulating ACSF (bubbled with carbogen). All other organs were treated similarly but Ringer's buffer was used instead of ACSF. For the heart and spleen, cross sectional slices going fully across the organ were taken. The slices were incubated at 35° C. for approximately 1 hrs before the incubator was switched off and the bath was allowed to cool to room temperature. […]

Hepg2s spheroids [3] = experiment: Hepg2s spheroids made by hanging drop technique, necrotic core formation; format: cell-based, human
Protocol: Multi-cellular spheroids were prepared using a hanging drop method. A stock solution of methylcellulose (MC) was prepared by dissolving 1.2 g of MC powder (4000 cP, Sigma-Aldrich) in 100 ml of DMEM. The solution was magnetically stirred overnight at 4° C. and subsequently centrifuged at 4,000 g for 3 hrs. HepG2s cells were re-suspended in cell medium containing 20% MC stock solution at a concentration of 20,000 cells per 50 μL spheroid. 50 μL drops were subsequently pipetted onto a non-adherent petri dish (Greiner) and, replacing the lid, the dish was turned upside-down and incubated overnight at 37° C. Multi-cellular spheroids were harvested individually with a wide bore pipette or collectively by adding 5 mL cell medium to the dish, collecting and centrifuging the suspension at 300 g for 5 min and resuspending the spheroids in cell medium. Spheroids were then cultured for 5 days in 48 well plates containing 2.5% agarose gel and 400 μl cell medium. EGTA was added at 0 and 2500 μM to both the spheroid pre-cursor solution and the cell culture medium. At day 3 and day 5 the spheroids were imaged and assessed.
Next, 3D cell culture was employed using Hepg2 cells and a standard hanging drop protocol of spheroid production. […] Necrotic cores disrupt physiology, and a challenge is vasculature formation faster than necrotic core formation. […]

## O=C(O)CN(CCOCCOCCN(CC(=O)O)CC(=O)O)CC(=O)O [EGTA, ethylene glycol-bis(β-aminoethyl ether)-N,N,N′,N′-tetraacetic acid]
Hepg2s spheroids [1]; Hepg2s spheroids, day 7
  dosage needed to suppress necrosis: 2500 µM
Hepg2s spheroids [1]; time points earlier than day 7
  toxicity at earlier time points: some mild, but not statistically significant, toxicity
E. coli
  E. coli death / colony forming units (CFU) following oxidative stress: death is prevented
C. elegans
  movement defects post stress: reduced movement defects
[2]
  % of necrotic cells (PI stain) relative to all cells (DAPI stain): necrosis cell death is prevented; also recorded: marked improvement in all 3 tissue types
Hepg2s spheroids [3]; hanging drop Hepg2s spheroids, 2500 μM EGTA or 5000 μM EGTA, 5 days
  necrotic core formation: no necrotic core even after 5 days
Hepg2s spheroids [3]; hanging drop Hepg2 spheroids, 20,000 cells, EGTA at 250 and 500 mM, day 5
  necrotic core formation: no necrotic cores being visible
